# Results taken from patent US20130131161A1, “METHODS AND COMPOSITIONS FOR CARDIOVASCULAR DISEASES AND CONDITIONS” (priority 2009, published 2013).
# Tested on: Human umbilical vein endothelial cells (HUVECs)
# Test: eNOS activity analysis: NO, ONOO− and NO/ONOO− release from HUVECs of 50 genotyped donors in response to LA-419 (Example 2)
# Assay type: cell-based
# Conditions: LA-419 5 μM
# Protocol: Concurrent measurements of NO and ONOO^− were carried out with tandem electrochemical nanosensors combined into one working unit with a total diameter of 200-500 nm (FIG. 1). Their design was based on previously developed and well-characterized chemically modified carbon-fiber technology (Malinski and Taha, 1992; Lvovich and Scheeline, 1997). Each of the nanosensors was made by depositing a sensing material on the tip of a carbon fiber (length 4-5 μm, diameter 0.2-0.5 μm). The fibers were sealed with nonconductive epoxy and electrically connected to copper wires with conductive silver epoxy. A conductive film of polymeric nickel (II) tetrakis(3-methoxy-4-hydroxyphenyl)porphyrin for the NO-sensor and polymeric film of Mn (III) [2.2]paracyclophanylporphyrin was used for the ONOO^−-sensor.
# A module of NO/ONOO^− nanosensors (diameter 1-2 μm) with a platinum wire (0.1 mm) counter electrode and saturated calomel reference electrode (SCE) were applied. Differential pulse voltammetry (DPV) and amperometry were performed with a computer-based Gamry VFP600 multichannel potentiostat. DPV was used to measure the basal NO and ONOO^− concentrations, and amperometry was used to measure changes in NO and ONOO^− concentrations from its basal level with time. The DPV current at the peak potential characteristic for NO oxidation (0.65 V) and ONOO^− reduction (−0.45 V) was directly proportional to the local concentrations of these compounds in the immediate vicinity of the sensor. Linear calibration curves (current vs. concentration) were constructed for each sensor from 10 nM to 3 μM before and after measurements with aliquots of NO and ONOO^− standard solutions, respectively. The detection limit of the sensors was 1.0 nM.
# The quantification of each analyte (concentration in nM) was performed using a maximum current from amperograms and standard calibration curves. A reproducibility of measurements with nanosensors is relatively high (between 5-12%). […] The sensors were slowly raised 5±2 μm from the surface of a single endothelial cell. The eNOS agonist, calcium ionophore A23187 (CaI) as well as the different drugs were then added to the surrounding media at the cell surface with a nanoinjector that was also positioned by a computer controlled-micromanipulator.
# This example describes the genotype-specific response of the three major eNOS variants to 1 μM and 5 μM concentrations of LA-419. The three major genetic polymorphisms studied were the Glu298Asp variant (E298D or 894G→T) in exon 7 of […], the −786T→C variant in the promoter region, and the intron 4 polymorphism (VNTR). All of these variants have possible effects on the cardiovascular system and endothelial dysfunction. For this study, human umbilical vein endothelial cells (HUVECs) from 50 donors between 18 and 32 years of age were used.
# For the analysis several analysis techniques were employed. First, the effect of genotype on NO and ONOO^− release was explored within the different concentrations of LA-419 (control, 1 μM, 5 μM), calculated as the average peak release (nmols/L) of NO, ONOO^−, and NO/ONOO^−. The effect of genotype on the net increase in NO, ONOO^−, and NO/ONOO^− for LA-419 (1 μM and 5 μM) as compared to control was also measured. In addition, an analysis was done on the effect of genotype on the % change in NO, ONOO^−, and NO/ONOO^− production for LA-419 (1 μM and 5 μM), calculated as:
# % Change=[(avg. LA-419−avg. control)/(avg. control)]*100
# Finally, an evaluation was undertaken concerning the effect of genotype on the production of NO, ONOO^−, and NO/ONOO^− as the fold difference of control for LA-419 (1 μM and 5 μM), calculated as:
# Fold Difference=(avg. LA-419)/(avg. control)
# Within each calculation technique the results were compared for statistical significance using a non-parametric ANOVA Kruskal-Wallace test or a non-parametric Mann-Whitney U test. Statistical significance was set at a p-value <0.05 in a two-tailed distribution. […]
# [1] = HUVECs Intron 4 variant b/a, a/a, c/c
# [2] = HUVECs T-786C variant T/C & C/C
smiles,measurement,setting,value
"CC(=O)SC1COC2C(O[N+](=O)[O-])COC12 (stereo not drawn) [LA-419, S-(6-Nitro-oxi-hexahydro-furo[3,2-b]furan-3-1-il)thioacetate]",Peak release ONOO− (mean ± sd),HUVECs G894T variant G/G,288.82 (78.22) nmols/L
same,"% Change Ratio, % Change NO/% Change ONOO− (mean ± sd)",HUVECs G894T variant G/T,−0.88 (0.60)
same,Net increase over control NO (mean ± sd),HUVECs G894T variant G/T,45.87 (19.24) nmols/L
same,Net increase over control NO/ONOO− (mean ± sd),HUVECs G894T variant G/T,−0.94 (0.88)
same,Net increase over control ONOO− (mean ± sd),HUVECs G894T variant G/T,−65.80 (26.77) nmols/L
same,Peak release NO (mean ± sd),HUVECs G894T variant G/T,400.63 (80.27) nmols/L
same,Peak release NO/ONOO− (mean ± sd),HUVECs G894T variant G/T,1.44 (0.49)
same,Peak release ONOO− (mean ± sd),HUVECs G894T variant G/T,300.15 (75.86) nmols/L
same,Net increase over control NO (mean ± sd),HUVECs G894T variant G/T & T/T,45.12 (21.46) nmols/L
same,Net increase over control NO/ONOO− (mean ± sd),HUVECs G894T variant G/T & T/T,−0.91 (0.90)
same,Net increase over control ONOO− (mean ± sd),HUVECs G894T variant G/T & T/T,−69.51 (27.46) nmols/L
same,Peak release NO (mean ± sd),HUVECs G894T variant G/T & T/T,398.42 (88.37) nmols/L
same,Peak release NO/ONOO− (mean ± sd),HUVECs G894T variant G/T & T/T,1.39 (0.53)
same,Peak release ONOO− (mean ± sd),HUVECs G894T variant G/T & T/T,314.55 (84.72) nmols/L
same,"% Change Ratio, % Change NO/% Change ONOO− (mean ± sd)",HUVECs G894T variant T/T,−0.80 (0.73)
same,Net increase over control NO (mean ± sd),HUVECs G894T variant T/T,42.40 (30.77) nmols/L
same,Net increase over control NO/ONOO− (mean ± sd),HUVECs G894T variant T/T,−0.78 (1.05)
same,Net increase over control ONOO− (mean ± sd),HUVECs G894T variant T/T,−82.87 (28.56) nmols/L
same,Peak release NO (mean ± sd),HUVECs G894T variant T/T,390.47 (124.39) nmols/L
same,Peak release NO/ONOO− (mean ± sd),HUVECs G894T variant T/T,1.21 (0.68)
same,Peak release ONOO− (mean ± sd),HUVECs G894T variant T/T,366.40 (103.55) nmols/L
same,Net increase over control NO (mean ± sd),HUVECs Intron 4 variant a/a,52.00 (16.74) nmols/L
same,Net increase over control NO/ONOO− (mean ± sd),HUVECs Intron 4 variant a/a,0.41 (0.19)
same,Net increase over control ONOO− (mean ± sd),HUVECs Intron 4 variant a/a,−63.78 (14.11) nmols/L
same,Peak release NO (mean ± sd),HUVECs Intron 4 variant a/a,438.33 (79.68) nmols/L
same,Peak release NO/ONOO− (mean ± sd),HUVECs Intron 4 variant a/a,1.48 (0.64)
same,Peak release ONOO− (mean ± sd),HUVECs Intron 4 variant a/a,331.22 (117.30) nmols/L
same,Net increase over control NO (mean ± sd),HUVECs Intron 4 variant b/a,54.53 (23.50) nmols/L
same,Net increase over control NO/ONOO− (mean ± sd),HUVECs Intron 4 variant b/a,0.45 (0.22)
same,Net increase over control ONOO− (mean ± sd),HUVECs Intron 4 variant b/a,−72.30 (25.81) nmols/L
same,Peak release NO (mean ± sd),HUVECs Intron 4 variant b/a,375.20 (81.45) nmols/L
same,Peak release NO/ONOO− (mean ± sd),HUVECs Intron 4 variant b/a,1.42 (0.61)
same,Peak release ONOO− (mean ± sd),HUVECs Intron 4 variant b/a,295.73 (85.11) nmols/L
same,Net increase over control NO (mean ± sd),[1],47.30 (22.42) nmols/L
same,Net increase over control NO/ONOO− (mean ± sd),[1],0.44 (0.20)
same,Net increase over control ONOO− (mean ± sd),[1],−72.31 (23.65) nmols/L
same,Peak release NO (mean ± sd),[1],392.83 (80.05) nmols/L
same,Peak release NO/ONOO− (mean ± sd),[1],1.43 (0.57)
same,Peak release ONOO− (mean ± sd),[1],305.67 (86.01) nmols/L
same,Net increase over control NO (mean ± sd),HUVECs Intron 4 variant b/b,47.30 (22.42) nmols/L
same,Net increase over control NO/ONOO− (mean ± sd),HUVECs Intron 4 variant b/b,0.43 (0.20)
same,Net increase over control ONOO− (mean ± sd),HUVECs Intron 4 variant b/b,−70.32 (30.56) nmols/L
same,Peak release NO (mean ± sd),HUVECs Intron 4 variant b/b,400.83 (81.57) nmols/L
same,Peak release NO/ONOO− (mean ± sd),HUVECs Intron 4 variant b/b,1.46 (0.51)
same,Peak release ONOO− (mean ± sd),HUVECs Intron 4 variant b/b,298.99 (79.66) nmols/L
same,Net increase over control NO (mean ± sd),HUVECs Intron 4 variant c/c,64.00 (0) nmols/L
same,Net increase over control NO/ONOO− (mean ± sd),HUVECs Intron 4 variant c/c,0.46 (0)
same,Net increase over control ONOO− (mean ± sd),HUVECs Intron 4 variant c/c,−98.00 (0) nmols/L
same,Peak release NO (mean ± sd),HUVECs Intron 4 variant c/c,432.67 (0) nmols/L
same,Peak release NO/ONOO− (mean ± sd),HUVECs Intron 4 variant c/c,1.32 (0)
same,Peak release ONOO− (mean ± sd),HUVECs Intron 4 variant c/c,328.33 (0) nmols/L
same,"% Change Ratio, % Change NO/% Change ONOO− (mean ± sd)",HUVECs T-786C variant C/C,−0.62 (0.39)
same,Net increase over control NO (mean ± sd),HUVECs T-786C variant C/C,38.00 (17.39) nmols/L
same,Net increase over control NO/ONOO− (mean ± sd),HUVECs T-786C variant C/C,−0.52 (0.36)
same,Net increase over control ONOO− (mean ± sd),HUVECs T-786C variant C/C,−82.58 (26.16) nmols/L
same,Peak release NO (mean ± sd),HUVECs T-786C variant C/C,370.17 (86.78) nmols/L
same,Peak release NO/ONOO− (mean ± sd),HUVECs T-786C variant C/C,1.32 (0.71)
same,Peak release ONOO− (mean ± sd),HUVECs T-786C variant C/C,322.33 (110.70) nmols/L
same,"% Change Ratio, % Change NO/% Change ONOO− (mean ± sd)",HUVECs T-786C variant T/C,−0.81 (0.56)
same,Net increase over control NO (mean ± sd),HUVECs T-786C variant T/C,47.26 (23.70) nmols/L
same,Net increase over control NO/ONOO− (mean ± sd),HUVECs T-786C variant T/C,−0.86 (0.80)
same,Net increase over control ONOO− (mean ± sd),HUVECs T-786C variant T/C,−65.86 (23.41) nmols/L
same,Peak release NO (mean ± sd),HUVECs T-786C variant T/C,396.81 (95.72) nmols/L
same,Peak release NO/ONOO− (mean ± sd),HUVECs T-786C variant T/C,1.41 (0.56)
same,Peak release ONOO− (mean ± sd),HUVECs T-786C variant T/C,310.97 (82.59) nmols/L
same,Net increase over control NO (mean ± sd),[2],45.89 (22.83) nmols/L
same,Net increase over control NO/ONOO− (mean ± sd),[2],−0.81 (0.76)
same,Net increase over control ONOO− (mean ± sd),[2],−68.33 (24.07) nmols/L
same,Peak release NO (mean ± sd),[2],392.86 (93.35) nmols/L
same,Peak release NO/ONOO− (mean ± sd),[2],1.39 (0.57)
same,Peak release ONOO− (mean ± sd),[2],312.65 (84.87) nmols/L
same,"% Change Ratio, % Change NO/% Change ONOO− (mean ± sd)",HUVECs T-786C variant T/T,−0.90 (0.47)
same,Net increase over control NO (mean ± sd),HUVECs T-786C variant T/T,55.91 (19.06) nmols/L
same,Net increase over control NO/ONOO− (mean ± sd),HUVECs T-786C variant T/T,−0.95 (0.67)
same,Net increase over control ONOO− (mean ± sd),HUVECs T-786C variant T/T,−76.48 (33.23) nmols/L
same,Peak release NO (mean ± sd),HUVECs T-786C variant T/T,405.83 (58.51) nmols/L
same,Peak release NO/ONOO− (mean ± sd),HUVECs T-786C variant T/T,1.52 (0.45)
same,Peak release ONOO− (mean ± sd),HUVECs T-786C variant T/T,286.47 (76.65) nmols/L
same,"% increase in peak NO generation, range within genotype groups",Table u1,11.6 to 17.4%
same,"increase in NO/OONO− ratio, range over all genotypes",Table u3,37-53%
same,peak release of NO versus control,all genotypes (Table b1),increase
same,"greater net increase in NO, major allele variant vs minor allele carriers","exon 7, p 0.10",22%
same,"greater net increase in NO, major allele variant vs minor allele carriers","promoter, p 0.12",22%
